Assay results: patent US20160318891A1, “TONABERSAT PRODRUGS” (PROXIMAGEN LIMITED, priority 2013, published 2016)
≈ marks a conversion by molar mass, not a printed value. Read-outs that look alike come from different tables or passages of the source. Blank lines part the entries; values can stand above or below the compound they belong to.

Columns and labels:
[1] = Solubility in aqueous solution; type: physicochemical
Excerpt: In an embodiment prodrugs of the present invention are suitable for oral administration. The skilled person understands that the pH of the gastrointestinal tract changes along its length. For example, the stomach has a pH of around pH 1.5 and the GI tract after the stomach has a pH of around 5 to 7.5. For more detail see, for example, Measurement of gastrointestinal pH profiles in normal ambulant human subjects, Gut. 1988 August; 29(8): 1035-1041. Improved solubility is expected to result in improved absorption, and therefore improved oral bioavailability. Thus improved solubility at any pH value between around pH 1.5 to 8 is expected to improve oral bioavailability. Compounds of the invention were assessed for solubility in aqueous solutions having a pH of from 2 to 10. In an embodiment prodrugs of the invention have a solubility of >0.5 mg/mL in an aqueous solution having a pH of from 2 to 8. In an embodiment prodrugs have a solubility of >5.0 mg/mL, or >10.0 mg/mL, >100.0 mg/mL, or >200.0 mg/mL. In an embodiment the prodrugs have the aforementioned aqueous solubility at a pH within the range of from 4 to 8, or from 6 to 8.
In an embodiment prodrugs of the invention are administered intravenously. High prodrug solubility is advantageous in order to reduce the volume of solution administered to the patient, and to reduce the risk of damage to the circulatory system. Solubility of >10 mg/mL is preferred. Yet more preferred is solubility of >30 mg/mL or >100.0 mg/mL. Yet more preferred is solubility of >200.0 mg/mL. The solubility is measured in an aqueous solution having a pH of from 2 to 10, which pH range is advantageous for intravenous prodrug delivery. See, for example, A guide on intravenous drug compatibilities based on their pH, Nasser S C et al./Pharmacie Globale (IJCP) 2010, 5 (01)). In an embodiment the prodrugs of the claimed invention have solubility of >10 mg/mL in an aqueous solution having a pH of from 2 to 10.

[2] = biological target: T1, human ether a go-go related gene (hERG) K+ channel (Homo sapiens, UniProt Q12809); experiment: hERG assay, IonWorks patch clamp electrophysiology; type: cell-based; details: Chinese Hamster Lung cell line stably expressing hERG; maximum assay concentration 33 uM
T1 construct: a Chinese Hamster Lung cell line stably expressing the full length hERG channel; expressed in transfected cells; host or cells: Chinese Hamster Lung cell line
T1 sequence (Q12809 whole entry): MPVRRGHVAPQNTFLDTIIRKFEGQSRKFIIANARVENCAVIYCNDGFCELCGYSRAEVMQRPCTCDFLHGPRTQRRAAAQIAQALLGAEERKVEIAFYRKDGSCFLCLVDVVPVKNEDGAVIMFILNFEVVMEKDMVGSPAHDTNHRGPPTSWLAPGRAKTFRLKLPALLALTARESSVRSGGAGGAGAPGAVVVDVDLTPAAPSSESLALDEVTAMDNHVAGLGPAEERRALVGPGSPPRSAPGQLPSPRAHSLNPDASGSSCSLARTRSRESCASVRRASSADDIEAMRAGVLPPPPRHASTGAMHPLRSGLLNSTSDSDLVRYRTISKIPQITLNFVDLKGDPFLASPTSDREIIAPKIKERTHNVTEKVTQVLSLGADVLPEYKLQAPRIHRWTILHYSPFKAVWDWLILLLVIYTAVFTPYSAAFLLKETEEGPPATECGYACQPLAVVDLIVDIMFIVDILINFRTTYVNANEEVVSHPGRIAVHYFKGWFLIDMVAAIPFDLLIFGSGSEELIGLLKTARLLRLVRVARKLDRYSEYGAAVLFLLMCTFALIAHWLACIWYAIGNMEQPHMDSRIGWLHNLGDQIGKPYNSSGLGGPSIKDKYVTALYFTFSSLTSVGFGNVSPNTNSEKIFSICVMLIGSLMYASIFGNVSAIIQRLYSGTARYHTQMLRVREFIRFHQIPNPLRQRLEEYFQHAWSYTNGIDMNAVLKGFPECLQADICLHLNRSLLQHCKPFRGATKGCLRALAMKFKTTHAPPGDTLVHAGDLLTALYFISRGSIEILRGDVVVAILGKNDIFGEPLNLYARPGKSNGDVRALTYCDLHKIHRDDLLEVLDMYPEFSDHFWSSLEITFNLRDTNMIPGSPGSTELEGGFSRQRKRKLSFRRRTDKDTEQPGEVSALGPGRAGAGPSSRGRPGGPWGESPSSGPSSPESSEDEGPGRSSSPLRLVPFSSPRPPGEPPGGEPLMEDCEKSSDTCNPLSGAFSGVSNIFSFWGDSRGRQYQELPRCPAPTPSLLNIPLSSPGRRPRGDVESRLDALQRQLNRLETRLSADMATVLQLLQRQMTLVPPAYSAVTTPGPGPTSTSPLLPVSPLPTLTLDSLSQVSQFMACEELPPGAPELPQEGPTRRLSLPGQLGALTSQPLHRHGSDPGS
Procedure: (§1) Compounds of the invention were tested for inhibition of the human ether a go-go related gene (hERG) K^+ channel using IonWorks patch clamp electrophysiology. 8 Point concentration-response curves were generated on two occasions using 3-fold serial dilutions from the maximum assay concentration (33 uM). Electrophysiological recordings were made from a Chinese Hamster Lung cell line stably expressing the full length hERG channel. Single cell ion currents were measured in the perforated patch clamp configuration (100 ug/mL amphoterocin) at room temperature using an IonWorks Quattro instrument. The internal solution contained 140 mM KCl, 1 mM MgCl2, 1 mM EGTA and 20 mM HEPES and was buffered to pH 7.3. The external solution contained 138 mM NaCl, 2.7 mM KCl, 0.9 mM CaCl2, 0.5 mM MgCl2, 8 mM Na2HPO4 and 1.5 mM KH2PO4, and was buffered to pH 7.3. Cells were clamped at a holding potential of […] for 30 s and then stepped to +40 mV for is. This was followed by a hyperpolarising step of 1 s to […] to evoke the hERG tail current. This sequence was repeated 5 times at a frequency of 0.25 Hz. Currents were measured from the tail step at the 5th pulse, and referenced to the holding current. Compounds were incubated for 6-7 min prior to a second measurement of the hERG signal using an identical pulse train. […] A control compound (quinidine) was used.

hERG K+ channel = biological target: T2, hERG K+ channel (Homo sapiens, UniProt Q12809); experiment: hERG assay, IonWorks patch clamp electrophysiology; type: cell-based; details: human, pH 7.3; 11 uM; Chinese Hamster Lung cell line stably expressing hERG
T2 construct: a Chinese Hamster Lung cell line stably expressing the full length hERG channel; expressed in transfected cells; host or cells: Chinese Hamster Lung cell line
T2 sequence (Q12809 whole entry): as above
Procedure: as §1

[3] = over a range of pH values including pH of 7.4; cited from earlier work
[4] = rat brain; cited from earlier work
high K+ evoked CSD [5] = details: cats; cited from earlier work
[6] = cited from earlier work
high K+ evoked CSD [7] = details: rats; cited from earlier work
[8] = human brain; cited from earlier work

solubility ([1]; aqueous buffer, pH 4.0): > 10000 µg/mL
Compound: CC(=O)c1ccc2c(c1)[C@H](NC(=O)c1ccc(F)c(Cl)c1)[C@H](OC(=O)[C@H](C)N)C(C)(C)O2.Cl [Example 1, (3S,4S)-6-Acetyl-4-[(3-chloro-4-fluorobenzene)amido]-2,2-dimethyl-3,4-dihydro-2H-1-benzopyran-3-yl (2S)-2-aminopropanoate hydrochloride]
IC50 [2]: 6 µM

solubility ([1]; pH 4.4, aqueous buffer): ~5000 µg/mL
Compound: CC(=O)c1ccc2c(c1)[C@H](NC(=O)c1ccc(F)c(Cl)c1)[C@H](OC(=O)[C@@H](N)C(C)C)C(C)(C)O2.Cl [Example 2, (3S,4S)-6-Acetyl-4-[(3-chloro-4-fluorobenzene)amido]-2,2-dimethyl-3,4-dihydro-2H-1-benzopyran-3-yl (2S)-2-amino-3-methylbutanoate hydrochloride]
inhibition at 11 µM (hERG K+ channel): 38%

solubility ([1]; pH 4.8, aqueous buffer): < 1000 µg/mL
Compound: CC(=O)c1ccc2c(c1)[C@H](NC(=O)c1ccc(F)c(Cl)c1)[C@H](OC(=O)[C@H](N)C(C)C)C(C)(C)O2.Cl [Example 3, (3S,4S)-6-Acetyl-4-[(3-chloro-4-fluorobenzene)amido]-2,2-dimethyl-3,4-dihydro-2H-1-benzopyran-3-yl (2R)-2-amino-3-methylbutanoate hydrochloride]
IC50 [2]: 4.3 µM

solubility ([1]; pH 4.2, aqueous buffer): > 10000 µg/mL
Compound: CC(=O)c1ccc2c(c1)[C@H](NC(=O)c1ccc(F)c(Cl)c1)[C@H](OC(=O)[C@H](N)CC(C)C)C(C)(C)O2.Cl [Example 4, (3S,4S)-6-Acetyl-4-[(3-chloro-4-fluorobenzene)amido]-2,2-dimethyl-3,4-dihydro-2H-1-benzopyran-3-yl (2R)-2-amino-4-methylpentanoate hydrochloride]

solubility ([1]; pH 4.4, aqueous buffer): > 10000 µg/mL
Compound: CC(=O)c1ccc2c(c1)[C@H](NC(=O)c1ccc(F)c(Cl)c1)[C@H](OC(=O)[C@@H]1CCCN1)C(C)(C)O2.Cl [Example 5, (3S,4S)-6-Acetyl-4-[(3-chloro-4-fluorobenzene)amido]-2,2-dimethyl-3,4-dihydro-2H-1-benzopyran-3-yl (2S)-pyrrolidine-2-carboxylate hydrochloride]
IC50 [2]: 1.4 µM

solubility ([1]; pH 4.7, aqueous buffer): > 10000 µg/mL
Compound: CC(=O)c1ccc2c(c1)[C@H](NC(=O)c1ccc(F)c(Cl)c1)[C@H](OC(=O)C(C)(C)N)C(C)(C)O2.Cl [Example 6, (3S,4S)-6-Acetyl-4-[(3-chloro-4-fluorobenzene)amido]-2,2-dimethyl-3,4-dihydro-2H-1-benzopyran-3-yl 2-amino-2-methylpropanoate hydrochloride]

solubility ([1]; pH 5.1, aqueous buffer): > 10000 µg/mL
Compound: CN[C@@H](C)C(=O)O[C@H]1[C@@H](NC(=O)c2ccc(F)c(Cl)c2)c2cc(C(C)=O)ccc2OC1(C)C.Cl [Example 8, (3S,4S)-6-Acetyl-4-[(3-chloro-4-fluorobenzene)amido]-2,2-dimethyl-3,4-dihydro-2H-1-benzopyran-3-yl (2S)-2-(methylamino)propanoate hydrochloride]

solubility ([1]; pH 4.4, aqueous buffer): > 10000 µg/mL
Compound: CC(=O)c1ccc2c(c1)[C@H](NC(=O)c1ccc(F)c(Cl)c1)[C@H](OC(=O)[C@@H](N)CCCCN)C(C)(C)O2.Cl.Cl [Example 9, (3S,4S)-6-Acetyl-4-[(3-chloro-4-fluorobenzene)amido]-2,2-dimethyl-3,4-dihydro-2H-1-benzopyran-3-yl (2S)-2,6-diaminohexanoate dihydrochloride]
inhibition at 11 µM (hERG K+ channel): 0%

solubility ([1]; pH 4.4, aqueous buffer): < 1000 µg/mL
Compound: CC(=O)c1ccc2c(c1)[C@H](NC(=O)c1ccc(F)c(Cl)c1)[C@H](OC(=O)[C@@H](N)CC(N)=O)C(C)(C)O2.Cl [Example 10, (3S,4S)-6-Acetyl-4-[(3-chloro-4-fluorobenzene)amido]-2,2-dimethyl-3,4-dihydro-2H-1-benzopyran-3-yl (2S)-2-amino-3-carbamoylpropanoate hydrochloride]
inhibition at 11 µM (hERG K+ channel): 18%

solubility ([1]; pH 4.6, aqueous buffer): > 2000 µg/mL
Compound: CC(=O)c1ccc2c(c1)[C@H](NC(=O)c1ccc(F)c(Cl)c1)[C@H](OC(=O)[C@@H](N)CCC(N)=O)C(C)(C)O2.Cl [Example 11, (3S,4S)-6-Acetyl-4-[(3-chloro-4-fluorobenzene)amido]-2,2-dimethyl-3,4-dihydro-2H-1-benzopyran-3-yl (2S)-2-amino-4-carbamoylbutanoate hydrochloride]

solubility ([1]; pH 4.4, aqueous buffer): > 10000 µg/mL
Compound: CC(=O)c1ccc2c(c1)[C@H](NC(=O)c1ccc(F)c(Cl)c1)[C@H](OC(=O)[C@@H](N)CCCNC(=N)N)C(C)(C)O2.Cl.Cl [Example 12, (3S,4S)-6-Acetyl-4-[(3-chloro-4-fluorobenzene)amido]-2,2-dimethyl-3,4-dihydro-2H-1-benzopyran-3-yl (2S)-2-amino-5-carbamimidamidopentanoate dihydrochloride]
inhibition at 11 µM (hERG K+ channel): 9%

solubility ([1]; pH 6.5, aqueous buffer): > 2000 µg/mL
Compound: CC(=O)c1ccc2c(c1)[C@H](NC(=O)c1ccc(F)c(Cl)c1)[C@H](OC(=O)[C@@H](N)CC(=O)O)C(C)(C)O2 [Example 13, (3S)-4-{[(3S,4S)-6-Acetyl-4-[(3-chloro-4-fluorobenzene)amido]-2,2-dimethyl-3,4-dihydro-2H-1-benzopyran-3-yl]oxy}-3-amino-4-oxobutanoic acid; trifluoroacetic acid]
inhibition at 11 µM (hERG K+ channel): 19%

solubility ([1]; pH 4.6, aqueous buffer): > 2000 µg/mL
Compound: CC(=O)c1ccc2c(c1)[C@H](NC(=O)c1ccc(F)c(Cl)c1)[C@H](OC(=O)[C@@H](N)CCC(=O)O)C(C)(C)O2 [Example 14, (4S)-5-{[(3S,4S)-6-Acetyl-4-[(3-chloro-4-fluorobenzene)amido]-2,2-dimethyl-3,4-dihydro-2H-1-benzopyran-3-yl]oxy}-4-amino-5-oxopentanoic acid; trifluoroacetic acid]
inhibition at 11 µM (hERG K+ channel): 8%

solubility ([1]; aqueous buffer, pH 3.0): < 1000 µg/mL
Compound: CC(=O)c1ccc2c(c1)[C@H](NC(=O)c1ccc(F)c(Cl)c1)[C@H](OCOC[C@@H](O)CO)C(C)(C)O2 [Example 16, N-[(3S,4S)-6-Acetyl-3-{[(2S)-2,3-dihydroxypropoxy]methoxy}-2,2-dimethyl-3,4-dihydro-2H-1-benzopyran-4-yl]-3-chloro-4-fluorobenzamide]

Compound: CC(=O)c1ccc2c(c1)[C@H](NC(=O)c1ccc(F)c(Cl)c1)[C@H](O)C(C)(C)O2 [Tonabersat]
aqueous solubility [3]: 25 µg/mL (≈ 63.8 µM)
binding to unique stereo-selective site [4]: binds selectively and with high affinity
inhibition of high K+ evoked CSD (high K+ evoked CSD [5]): inhibits high K+ evoked CSD
log P [6]: 3.32
inhibition of high K+ evoked CSD (high K+ evoked CSD [7]): inhibits high K+ evoked CSD
binding to unique stereo-selective site [8]: binds selectively and with high affinity
